Strand notation (5' to 3'): a small letter for the sugar, then the base; units joined by * are phosphorothioate-linked, units joined directly phosphodiester-linked; [ ] holds rarer units or linkages, { } end groups; capitals alone tell only the bases. k = constrained ethyl (cEt); [5mC] = 5-methylcytosine; d = 2'-deoxy (DNA)
Tested on: Yap1 mRNA
Assay: Dose-dependent inhibition of human Yap1 in A-431 cells (Example 7, 10,000 cells per well, RTS36584)
Format: cell-based
Settings: free uptake
Description: Modified oligonucleotides described in the studies above were tested at various doses in A-431 cells. Cultured A-431 cells at a density of 10,000 cells per well were treated using free uptake with modified oligonucleotides diluted to concentrations described in the tables below. After approximately 48 hours, Yap1 mRNA levels were measured as previously described using the Human Yap1 primer-probe set RTS36584. Yap1 mRNA levels were normalized to total RNA content, as measured by RIBOGREEN®. Results are presented in the tables below as percent control of the amount of Yap1 mRNA relative to untreated control cells (% UTC). IC50s were calculated using a linear regression on a log/linear plot of the data in excel.

[1] = 15.6 nM, A-431 cells, 10,000 cells per well, approximately 48 hours
[2] = 62.5 nM, A-431 cells, 10,000 cells per well, approximately 48 hours
[3] = 4000.00 nM, A-431 cells, 10,000 cells per well, approximately 48 hours
[4] = A-431 cells, approximately 48 hours, linear regression on log/linear plot
[5] = Table 58, 15.6 nM, A-431 cells 10,000 cells per well, 48 hours
[6] = Table 58, 62.5 nM, A-431 cells 10,000 cells per well, 48 hours
[7] = Table 58, 4000.00 nM, A-431 cells 10,000 cells per well, 48 hours
[8] = Table 58, A-431 cells 10,000 cells per well
[9] = Table 56, 15.6 nM, A-431 cells 10,000 cells per well, 48 hours
[10] = Table 56, 62.5 nM, A-431 cells 10,000 cells per well, 48 hours
[11] = Table 56, 4000.00 nM, A-431 cells 10,000 cells per well, 48 hours
[12] = Table 56, A-431 cells 10,000 cells per well
[13] = Table 61, 15.6 nM, A-431 cells 10,000 cells per well, 48 hours
[14] = Table 61, 62.5 nM, A-431 cells 10,000 cells per well, 48 hours
[15] = Table 61, 4000.00 nM, A-431 cells 10,000 cells per well, 48 hours
[16] = Table 61, A-431 cells 10,000 cells per well

Substance: 958731 (kG*k[5mC]*kT*d[5mC]*dT*dG*dT*d[5mC]*dA*dG*dT*dT*dA*kT*k[5mC]*k[5mC]; antisense) [compound 958731]
- Yap1 mRNA, % UTC (Table 57, 15.6 nM, A-431 cells 10,000 cells per well, 48 hours): 85 % UTC
- Yap1 mRNA, % UTC (Table 57, 62.5 nM, A-431 cells 10,000 cells per well, 48 hours): 64 % UTC
- Yap1 mRNA, % UTC (Table 57, 4000.00 nM, A-431 cells 10,000 cells per well, 48 hours): 19 % UTC
- IC50 (Table 57, A-431 cells 10,000 cells per well): 100 nM

Substance: 958737 (kG*kG*kA*dA*dT*dA*d[5mC]*dA*dA*dG*d[5mC]*d[5mC]*d[5mC]*kG*kA*kG; antisense) [compound 958737]
- Yap1 mRNA, % UTC (Table 59, 15.6 nM, A-431 cells 10,000 cells per well, 48 hours): 104 % UTC
- Yap1 mRNA, % UTC (Table 59, 62.5 nM, A-431 cells 10,000 cells per well, 48 hours): 92 % UTC
- Yap1 mRNA, % UTC (Table 59, 4000.00 nM, A-431 cells 10,000 cells per well, 48 hours): 29 % UTC
- IC50 (Table 59, A-431 cells 10,000 cells per well): 400 nM

Substance: 958795 (kT*kA*kT*dT*d[5mC]*d[5mC]*dG*d[5mC]*dA*dT*dT*dG*d[5mC]*k[5mC]*kT*kA; antisense) [compound 958795]
- Yap1 mRNA, % UTC [1]: 90 % UTC
- Yap1 mRNA, % UTC [2]: 69 % UTC
- Yap1 mRNA, % UTC [3]: 20 % UTC
- IC50 [4]: 200 nM

Substance: 958805 (k[5mC]*kA*kA*dG*dA*dT*dA*dA*dT*d[5mC]*dA*dT*d[5mC]*k[5mC]*kT*k[5mC]; antisense) [compound 958805]
- Yap1 mRNA, % UTC [1]: 90 % UTC
- Yap1 mRNA, % UTC [2]: 89 % UTC
- Yap1 mRNA, % UTC [3]: 28 % UTC
- IC50 [4]: 300 nM

Substance: 958807 (kT*k[5mC]*kA*dT*dT*dG*dT*dA*dG*dT*d[5mC]*dT*dG*kT*k[5mC]*kT; antisense) [compound 958807]
- Yap1 mRNA, % UTC [5]: 92 % UTC
- Yap1 mRNA, % UTC [6]: 65 % UTC
- Yap1 mRNA, % UTC [7]: 10 % UTC
- IC50 [8]: 100 nM

Substance: 958476 (kT*kT*k[5mC]*d[5mC]*dG*dG*dT*dG*d[5mC]*dA*dT*dG*dT*kG*kT*k[5mC]; antisense) [compound 958476]
- Yap1 mRNA, % UTC [9]: 71 % UTC
- Yap1 mRNA, % UTC [10]: 30 % UTC
- Yap1 mRNA, % UTC [11]: 6 % UTC
- IC50 [12]: 30 nM

Substance: 958565 (kT*kT*kG*dA*dG*d[5mC]*dA*d[5mC]*dT*dG*dA*dA*dA*kG*kT*kA; antisense) [compound 958565]
- Yap1 mRNA, % UTC [1]: 83 % UTC
- Yap1 mRNA, % UTC [2]: 62 % UTC
- Yap1 mRNA, % UTC [3]: 13 % UTC
- IC50 [4]: 100 nM

Substance: 958724 (kT*k[5mC]*kA*dG*dT*dT*dA*dT*d[5mC]*d[5mC]*dT*dA*dT*k[5mC]*k[5mC]*k[5mC]; antisense) [compound 958724]
- Yap1 mRNA, % UTC [13]: 89 % UTC
- Yap1 mRNA, % UTC [14]: 55 % UTC
- Yap1 mRNA, % UTC [15]: 6 % UTC
- IC50 [16]: 100 nM

Substance: 958648 (kG*kA*kA*dT*dA*d[5mC]*dT*dG*dA*dG*dT*d[5mC]*dA*kG*kG*kA; antisense) [compound 958648]
- Yap1 mRNA, % UTC (Table 60, 15.6 nM, A-431 cells 10,000 cells per well, 48 hours): 80 % UTC
- Yap1 mRNA, % UTC (Table 60, 62.5 nM, A-431 cells 10,000 cells per well, 48 hours): 65 % UTC
- Yap1 mRNA, % UTC (Table 60, 4000.00 nM, A-431 cells 10,000 cells per well, 48 hours): 24 % UTC
- IC50 (Table 60, A-431 cells 10,000 cells per well): 200 nM

Substance: 958361 (antisense kG*k[5mC]*kT*d[5mC]*dG*dA*dA*d[5mC]*dA*dT*dG*d[5mC]*dT*kG*kT*kG) [compound 958361]
- Yap1 mRNA, % UTC [9]: 100 % UTC
- Yap1 mRNA, % UTC [10]: 80 % UTC
- Yap1 mRNA, % UTC [11]: 22 % UTC
- IC50 [12]: 220 nM

Substance: 958373 (antisense kA*kG*kG*dT*dG*d[5mC]*dT*dA*dG*d[5mC]*dT*dG*dG*kT*kG*k[5mC]) [compound 958373]
- Yap1 mRNA, % UTC [9]: 72 % UTC
- Yap1 mRNA, % UTC [10]: 45 % UTC
- Yap1 mRNA, % UTC [11]: 17 % UTC
- IC50 [12]: 50 nM

Substance: 958659 (kG*kT*kT*dG*dT*dA*dT*dT*dA*d[5mC]*dT*d[5mC]*dT*k[5mC]*k[5mC]*kA; antisense) [compound 958659]
- Yap1 mRNA, % UTC [13]: 91 % UTC
- Yap1 mRNA, % UTC [14]: 68 % UTC
- Yap1 mRNA, % UTC [15]: 9 % UTC
- IC50 [16]: 100 nM

Substance: 958484 (kG*k[5mC]*kA*dG*d[5mC]*dA*dA*dT*dG*dG*dA*d[5mC]*dA*kA*kG*kG; antisense) [compound 958484]
- Yap1 mRNA, % UTC [13]: 77 % UTC
- Yap1 mRNA, % UTC [14]: 38 % UTC
- Yap1 mRNA, % UTC [15]: 4 % UTC
- IC50 [16]: 50 nM

Substance: 958457 (antisense kG*kT*k[5mC]*dG*dA*dA*dG*dA*dT*dG*d[5mC]*dT*dG*kA*kG*k[5mC]) [compound 958457]
- Yap1 mRNA, % UTC [5]: 91 % UTC
- Yap1 mRNA, % UTC [6]: 50 % UTC
- Yap1 mRNA, % UTC [7]: 13 % UTC
- IC50 [8]: 100 nM
